Data: the supplement of paper PMC11208160

experiment: recombinant UMI read abundance after kanamycin selection (control-corrected) (log10(CPM+1)); higher = more efficient recombination; extreme values may be limits of the assay; sequences stand for … in AGTGCAGAGAAAATCGGCCAGTTTTCTCTGCCTGCAGTCCGCATGCCGTGGGACCCCTTGGGTTCTAACCTGTTGCCTAGATTTATGCAGCGGACTGCCTTTCTCCCAAAGTGATAAACCGG…AGGTTGGTTTCACT; site = the 11-nt donor
How it was run: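 Pooled Escherichia coli screen of donor and donor-binding-loop pairs for the IS621 bridge recombinase. Each pair sits with a 12-nt UMI on a plasmid carrying a promoterless kanamycin gene. The library was co-electroporated with a target plasmid encoding a fixed target and T7-inducible recombinase, then plated with IPTG (0.07 mM) plus kanamycin, or unselected, each in two replicates. Recombinant UMIs were PCR-amplified across the donor–target junction and sequenced. Counts became CPM, averaged over replicates, scaled by control-derived factors and reported as log10(CPM+1).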

Row | Sequence | recombinant UMI read abundance (log10)
1 | TTAGCTGCATGGACCGGTTTTCCCGGTAATCCGTATTTGTA (site TTAGCTGCTCA) | 0.026
2 | TTAGCTGCATGGACCGGTTTTCCCGGTAATCCGTATTTGTA (site TTAGCTGCTGA) | 0
3 | TTAGCTGCATGGACCGGTTTTCCCGGTAATCCGTATTTGTA (site TTAGCTGCTTA) | 1.35
4 | TTAGCTTCATGGACCGGTTTTCCCGGTAATCCGTATTTGTG (site TTAGCTACTCA) | 0.0149
5 | TTAGCTTCATGGACCGGTTTTCCCGGTAATCCGTATTTGTG (site TTAGCTCCTCA) | 0.012
6 | TTAGCTTCATGGACCGGTTTTCCCGGTAATCCGTATTTGTG (site TTAGCTGCTCA) | 0.00609
7 | TTAGCTTCATGGACCGGTTTTCCCGGTAATCCGTATTTGTG (site TTAGCTTCTCA) | 0.478
8 | TTAGGTTCATGGACCGGTTTTCCCGGTAATCCGTATTTGGC (site TTAGGTTCTGC) | 2.53
9 | TTAGTATCATGGACCGGTTTTCCCGGTAATCCGTATTTGAG (site CTAGTATCTGT) | 0
10 | TTAGTATCATGGACCGGTTTTCCCGGTAATCCGTATTTGAG (site TTAGTATCTCT) | 1.66
11 | TTAGTCTCATGGACCGGTTTTCCCGGTAATCCGTATTTGAC (site CTAGTATCTGT) | 0
12 | TTAGTCTCATGGACCGGTTTTCCCGGTAATCCGTATTTGAC (site TTAGTCTCTGT) | 3.02
13 | TTATCTGCATGGACCGGTTTTCCCGGTAATCCGTATTTGTG (site TTAACTGCTCA) | 0.00525
14 | TTATCTGCATGGACCGGTTTTCCCGGTAATCCGTATTTGTG (site TTACCTGCTCA) | 0.0587
15 | TTATCTGCATGGACCGGTTTTCCCGGTAATCCGTATTTGTG (site TTAGCTGCTCA) | 0.00464
16 | TTATCTGCATGGACCGGTTTTCCCGGTAATCCGTATTTGTG (site TTATCTGCTCA) | 1.73
17 | TTATGGTCATGGACCGGTTTTCCCGGTAATCCGTATTTGGC (site TTATGGTCTGC) | 1.88
18 | TTATGTACATGGACCGGTTTTCCCGGTAATCCGTATTTGGG (site TTATGTACTCC) | 0.0157
19 | TTATTGTCATGGACCGGTTTTCCCGGTAATCCGTATTTGCA (site TTATTGTCTTG) | 2.35
20 | TTCAAGTCATGGACCGGTTTTCCCGGTAATCCGTATTTGTA (site TTCAAGTCTTA) | 0.621
21 | TTCACGGCATGGACCGGTTTTCCCGGTAATCCGTATTTGTC (site TTCACGGCTGA) | 0.624
22 | TTCAGTCCATGGACCGGTTTTCCCGGTAATCCGTATTTGAT (site TTCAGTCCTAT) | 0
23 | TTCATTACATGGACCGGTTTTCCCGGTAATCCGTATTTGAT (site TTCATTACTAT) | 0
24 | TTCCAAGCATGGACCGGTTTTCCCGGTAATCCGTATTTGAG (site ATCCAAGCTCT) | 0
25 | TTCCAAGCATGGACCGGTTTTCCCGGTAATCCGTATTTGAG (site CTCCAAGCTCT) | 0.00912

Row | Sequence | recombinant UMI read abundance (log10)
26 | TTCCAAGCATGGACCGGTTTTCCCGGTAATCCGTATTTGAG (site GTCCAAGCTCT) | 0.0126
27 | TTCCAAGCATGGACCGGTTTTCCCGGTAATCCGTATTTGAG (site TTCCAAGCTCT) | 0.0285
28 | TTCCAGCCATGGACCGGTTTTCCCGGTAATCCGTATTTGTG (site TTCCAGCCTCA) | 0.0201
29 | TTCCCTACATGGACCGGTTTTCCCGGTAATCCGTATTTGAG (site ATCCCTACTCT) | 0
30 | TTCCCTACATGGACCGGTTTTCCCGGTAATCCGTATTTGAG (site CTCCCTACTCT) | 0.0509
31 | TTCCCTACATGGACCGGTTTTCCCGGTAATCCGTATTTGAG (site GTCCCTACTCT) | 0.0155
32 | TTCCCTACATGGACCGGTTTTCCCGGTAATCCGTATTTGAG (site TTCCCTACTCT) | 0.00443
33 | TTCGACCCATGGACCGGTTTTCCCGGTAATCCGTATTTGAG (site TTCGACCCTCT) | 0.00989
34 | TTCGAGACATGGACCGGTTTTCCCGGTAATCCGTATTTGAC (site TTCGAGACTGT) | 1.53
35 | TTCGAGGCATGGACCGGTTTTCCCGGTAATCCGTATTTGAT (site TTCGAGGCTAT) | 0.482
36 | TTCGCACCATGGACCGGTTTTCCCGGTAATCCGTATTTGGT (site TTCGCACCTAC) | 0.00499
37 | TTCGCTGCATGGACCGGTTTTCCCGGTAATCCGTATTTGTA (site TTCGCTGCTTA) | 0.369
38 | TTCTACGCATGGACCGGTTTTCCCGGTAATCCGTATTTGTT (site TTCTACGCTAA) | 0.603
39 | TTCTAGGCATGGACCGGTTTTCCCGGTAATCCGTATTTGCG (site TTCTAGGCTCG) | 0.0116
40 | TTCTTCACATGGACCGGTTTTCCCGGTAATCCGTATTTGTC (site TTCTTCACTGA) | 0
41 | TTGAACGCATGGACCGGTTTTCCCGGTAATCCGTATTTGAC (site TTGAACGCTGT) | 0.899
42 | TTGACTACATGGACCGGTTTTCCCGGTAATCCGTATTTGCT (site TTGACTACTAG) | 1.09
43 | TTGATTACATGGACCGGTTTTCCCGGTAATCCGTATTTGGC (site TTGATTACTGC) | 0
44 | TTGATTCCATGGACCGGTTTTCCCGGTAATCCGTATTTGAC (site TTGATTCCTGT) | 0.35
45 | TTGCAAGCATGGACCGGTTTTCCCGGTAATCCGTATTTGCT (site TTGCAAGCTAG) | 0
46 | TTGCTACCATGGACCGGTTTTCCCGGTAATCCGTATTTGCT (site ATGCTACCTAG) | 0
47 | TTGCTACCATGGACCGGTTTTCCCGGTAATCCGTATTTGCT (site CTGCTACCTAG) | 0.00337
48 | TTGCTACCATGGACCGGTTTTCCCGGTAATCCGTATTTGCT (site GTGCTACCTAG) | 0
49 | TTGCTACCATGGACCGGTTTTCCCGGTAATCCGTATTTGCT (site TTGCTACCTAG) | 0
50 | TTGGCAACATGGACCGGTTTTCCCGGTAATCCGTATTTGAT (site TTGGCAACTAT) | 0.238

Row | Sequence | recombinant UMI read abundance (log10)
51 | TTGGCGCCATGGACCGGTTTTCCCGGTAATCCGTATTTGAG (site TTGGCGCCTCT) | 0.00946
52 | TTGGTAACATGGACCGGTTTTCCCGGTAATCCGTATTTGAC (site TTGGTAACTGT) | 2.33
53 | TTGGTATCATGGACCGGTTTTCCCGGTAATCCGTATTTGTG (site TTGGTATCTCA) | 1.82
54 | TTGGTGGCATGGACCGGTTTTCCCGGTAATCCGTATTTGTC (site TTGGTGGCTGA) | 1.5
55 | TTGTACGCATGGACCGGTTTTCCCGGTAATCCGTATTTGCA (site TTGTACGCTTG) | 1.8
56 | TTGTAGGCATGGACCGGTTTTCCCGGTAATCCGTATTTGGC (site ATGTAGGCTGC) | 0
57 | TTGTAGGCATGGACCGGTTTTCCCGGTAATCCGTATTTGGC (site CTGTAGGCTGC) | 1.59
58 | TTGTAGGCATGGACCGGTTTTCCCGGTAATCCGTATTTGGC (site GTGTAGGCTGC) | 0
59 | TTGTAGGCATGGACCGGTTTTCCCGGTAATCCGTATTTGGC (site TTGTAGGCTGC) | 1.76
60 | TTGTCACCATGGACCGGTTTTCCCGGTAATCCGTATTTGTG (site TTGTCACCTCA) | 0.0196
61 | TTGTCGACATGGACCGGTTTTCCCGGTAATCCGTATTTGAC (site TTGTCGACTGT) | 0.302
62 | TTGTGGCCATGGACCGGTTTTCCCGGTAATCCGTATTTGTG (site TTGTGGCCTCA) | 0.0156
63 | TTGTGTACATGGACCGGTTTTCCCGGTAATCCGTATTTGCA (site TTGTGTACTTG) | 0.756
64 | TTTAATCCATGGACCGGTTTTCCCGGTAATCCGTATTTGAT (site TTTAATCCTAT) | 0.157
65 | TTTAGGGCATGGACCGGTTTTCCCGGTAATCCGTATTTGAC (site TTTAGGGCTGT) | 1.53
66 | TTTATTTCATGGACCGGTTTTCCCGGTAATCCGTATTTGAG (site TTTATTTCTCT) | 0.00225
67 | TTTCCGGCATGGACCGGTTTTCCCGGTAATCCGTATTTGTA (site TTTCCGGCTTA) | 0.262
68 | TTTCGATCATGGACCGGTTTTCCCGGTAATCCGTATTTGGT (site TTTCGATCTAC) | 0.00229
69 | TTTCTGCCATGGACCGGTTTTCCCGGTAATCCGTATTTGAA (site TTTCTGCCTTT) | 0.00894
70 | TTTCTGCCATGGACCGGTTTTCCCGGTAATCCGTATTTGCG (site TTTCTGCCTCG) | 0.0153
71 | TTTGAGGCATGGACCGGTTTTCCCGGTAATCCGTATTTGCT (site TTTGAGGCTAG) | 1.31
72 | TTTGAGGCATGGACCGGTTTTCCCGGTAATCCGTATTTGCT (site TTTGCGGCTAG) | 0
73 | TTTGAGGCATGGACCGGTTTTCCCGGTAATCCGTATTTGCT (site TTTGGGGCTAG) | 0.458
74 | TTTGAGGCATGGACCGGTTTTCCCGGTAATCCGTATTTGCT (site TTTGTGGCTAG) | 0.0143
75 | TTTGCGACATGGACCGGTTTTCCCGGTAATCCGTATTTGCT (site TTTGCGACTAG) | 0.529
